Laboratory results: patent US20250388543A1, “HETEROARYL COMPOUNDS FOR THE TREATMENT OF PAIN” (VERTEX PHARMACEUTICALS INCORPORATED, priority 2022, published 2025)

Target: human NaV 1.8 (Homo sapiens, UniProt Q9Y5Y9)
Assay: E-VIPR Assay Detecting and Measuring NaV Inhibition Properties
Assay type: cell-based
Conditions: HEK cells expressing a truncated form of human NaV 1.8 with full channel activity; electrical stimulation, membrane-potential FRET dyes; 30 minutes compound incubation; read-out: measured IC50 value in the E-VIPR Assay
From the text: E-VIPR Assay Detecting and Measuring NaV Inhibition Properties
Sodium ion channels are voltage-dependent proteins that can be activated by inducing membrane voltage changes by applying electric fields. The electrical stimulation instrument and methods of use, referred to as E-VIPR, are described in International Publication No. WO 2002/008748 A3 and C.-J. Huang et al. Characterization of voltage-gated sodium channel blockers by electrical stimulation and fluorescence detection of membrane potential, 24 Nature Biotech. 439-46 (2006), both of which are incorporated by reference in their entirety. The instrument comprises a microtiter plate handler, an optical system for exciting the coumarin dye while simultaneously recording the coumarin and oxonol emissions, a waveform generator, a current- or voltage-controlled amplifier, and parallel electrode pairs that are inserted into assay plate wells. Under integrated computer control, this instrument passes user-programmed electrical stimulus protocols to cells within the wells of the microtiter plate.
16-20 hours prior to running the assay on E-VIPR, HEK cells expressing a truncated form of human NaV 1.8 with full channel activity were seeded into microtiter 384-well plates, pre-coated with matrigel, at a density of 25,000 cells per well. 2.5-5% KIR2.1 BacMam virus was added to the final cell suspension before seeding into cell plates. HEK cells were grown in Dulbecco's Modified Eagle's Medium (DMEM) supplemented with 10% FBS (Fetal Bovine Serum, qualified; Sigma #F4135), 1% NEAA (Non-Essential Amino Acids, Gibco #11140), 1% HEPES (Gibco #15630), 1% Pen-Strep (Penicillin-Streptomycin; Gibco #15140) and 5 μg/ml Blasticidin (Gibco #R210-01). Cells were expanded in 5-layer CellSTACK culture chambers or cell culture flasks with vented caps, with 90-95% humidity and 5% CO2.
Reagents and Stock Solutions:
100 mg/mL Pluronic F-127 (Sigma #P2443), in dry DMSO
Compound Plates: Corning 384-well Polypropylene Round Bottom #3656
Cell Plates: 384-well tissue culture treated plates (Greiner #781091-2B)
2.5-5% KIR 2.1 Bacmam virus (produced in-house), prepared as described in Section 3.3 of J. A. Fornwald et al., Gene Expression in Mammalian Cells Using BacMam, a Modified Baculovirus System, 1350 Methods in Molecular Biology 95-116 (2016), the entire contents of which are incorporated by reference. The concentration used can be dependent on viral titer of each batch.
5 mM DiSBAC6(3), a voltage sensitive oxonol acceptor (CAS number 169211-44-3; 5-[3-(1,3-dihexylhexahydro-4,6-dioxo-2-thioxo-5-pyrimidinyl)-2-propen-1-ylidene]-1,3-dihexyldihydro-2-thioxo-4,6(1H,5H)-pyrimidinedione), in dry DMSO. The preparation of DiSBAC6(3) is analogous to that of DiSBAC4(3) as described in Voltage Sensing by Fluorescence Resonance Energy Transfer in Single Cells, Gonzalez, J. E. and Tsien, R. Y. (1995) Biophys. J. 69, 1272-1280.
5 mM CC2-DMPE, a commercially available membrane-bound coumarin phospholipid FRET donor (ThermoFisher Scientific catalog number K1017, CAS number 393782-57-5; tetradecanoic acid, 1,1′-[(1R)-1-[8-(6-chloro-7-hydroxy-2-oxo-2H-1-benzopyran-3-yl)-3-hydroxy-3-oxido-8-oxo-2,4-dioxa-7-aza-3-phosphaoct-1-yl]-1,2-ethanediyl]ester) was prepared in dry DMSO. See also, Improved indicators of cell membrane potential that use fluorescence resonance energy transfer, Gonzalez, J. E. and Tsien, R. Y. (1997) Chem. Biol. 4, 269-277.
Voltage Assay Background Suppression Compound (VABSC-1) is prepared in H2O (89-363 mM, range used to maintain solubility)
Human Serum (HS, Millipore #S1P1-01KL, or Sigma SLBR5469V and SLBR5470V as a 50%/50% mixture, for 25% assay final concentration)
Sodium Chloride 160 mM (9.35 g/L), Potassium Chloride, 4.5 mM (0.335 g/L), Glucose 10 mM (1.8 g/L), Magnesium Chloride (Anhydrous) 1 mM (0.095 g/L), Calcium Chloride 2 mM (0.222 g/L), HEPES 10 mM (2.38 g/L) in water. […]

Chain of human NaV 1.8 (Q9Y5Y9 126-1722 limits assumed): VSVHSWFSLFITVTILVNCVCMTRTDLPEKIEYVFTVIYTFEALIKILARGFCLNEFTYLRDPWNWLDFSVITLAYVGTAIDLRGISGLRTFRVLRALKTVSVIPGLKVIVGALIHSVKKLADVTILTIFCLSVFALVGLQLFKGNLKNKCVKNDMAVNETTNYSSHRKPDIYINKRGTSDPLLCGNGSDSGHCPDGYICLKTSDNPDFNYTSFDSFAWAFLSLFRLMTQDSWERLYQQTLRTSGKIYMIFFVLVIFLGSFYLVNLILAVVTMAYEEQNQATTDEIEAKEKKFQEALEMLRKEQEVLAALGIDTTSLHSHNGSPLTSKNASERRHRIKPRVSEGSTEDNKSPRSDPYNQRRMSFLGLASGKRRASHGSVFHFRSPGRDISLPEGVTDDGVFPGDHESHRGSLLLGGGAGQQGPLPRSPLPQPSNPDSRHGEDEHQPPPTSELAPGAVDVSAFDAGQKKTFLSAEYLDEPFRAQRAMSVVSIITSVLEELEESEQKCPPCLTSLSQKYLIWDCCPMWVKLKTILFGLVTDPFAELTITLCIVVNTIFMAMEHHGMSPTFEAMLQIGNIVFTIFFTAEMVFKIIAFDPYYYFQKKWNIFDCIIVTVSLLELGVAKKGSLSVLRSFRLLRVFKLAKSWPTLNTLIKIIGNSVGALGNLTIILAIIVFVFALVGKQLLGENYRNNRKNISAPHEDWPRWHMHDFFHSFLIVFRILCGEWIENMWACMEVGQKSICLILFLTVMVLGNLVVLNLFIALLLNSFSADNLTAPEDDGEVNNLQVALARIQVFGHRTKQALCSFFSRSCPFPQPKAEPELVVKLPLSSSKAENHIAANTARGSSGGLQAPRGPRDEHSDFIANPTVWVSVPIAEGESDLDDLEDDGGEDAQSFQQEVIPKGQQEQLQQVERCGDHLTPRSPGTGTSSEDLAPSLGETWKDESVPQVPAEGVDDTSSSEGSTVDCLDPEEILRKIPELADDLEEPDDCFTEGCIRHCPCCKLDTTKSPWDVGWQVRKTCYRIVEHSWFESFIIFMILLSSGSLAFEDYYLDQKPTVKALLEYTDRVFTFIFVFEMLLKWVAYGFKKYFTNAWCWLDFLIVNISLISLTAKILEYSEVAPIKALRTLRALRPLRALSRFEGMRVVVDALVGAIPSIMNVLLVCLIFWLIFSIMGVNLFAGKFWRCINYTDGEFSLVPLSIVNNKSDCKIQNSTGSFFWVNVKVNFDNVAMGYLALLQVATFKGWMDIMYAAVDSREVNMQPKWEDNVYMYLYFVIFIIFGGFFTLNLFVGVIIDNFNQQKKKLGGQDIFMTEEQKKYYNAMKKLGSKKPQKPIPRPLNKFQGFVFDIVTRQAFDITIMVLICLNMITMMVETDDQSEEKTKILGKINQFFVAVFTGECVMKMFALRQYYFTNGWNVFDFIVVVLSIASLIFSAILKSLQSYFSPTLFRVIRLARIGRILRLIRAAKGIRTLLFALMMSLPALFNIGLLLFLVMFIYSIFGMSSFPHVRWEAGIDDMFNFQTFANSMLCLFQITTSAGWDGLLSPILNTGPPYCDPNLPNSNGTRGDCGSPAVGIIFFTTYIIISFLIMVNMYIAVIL

| IC50 | Compound |
| --- | --- |
| 0.5 to 2 µM | CO[C@@H]1CN(c2nc3ccccc3cc2-c2cc(=O)cc(C)[nH]2)C[C@@H]1C [Compound 253, 2-[2-[(3S,4S)-3-methoxy-4-methyl-pyrrolidin-1-yl]-3-quinolyl]-6-methyl-1H-pyridin-4-one] |
| ≥ 5 µM | COc1cc(F)ccc1Oc1cc(C(C)(C)C)cc(C)c1-c1cc(=O)cc(C(O)CO)[nH]1 (stereo not drawn) [Compound 274, 2-[4-tert-butyl-2-(4-fluoro-2-methoxy-phenoxy)-6-methyl-phenyl]-6-(1,2-dihydroxyethyl)-1H-pyridin-4-one] |
| 0.5 to 2 µM | COc1c(Oc2cnc(C(F)(F)F)cc2-c2[nH]c(C)c(C)c(=O)c2C(=O)O)ccc(F)c1F [Compound 280, 2-[5-(3,4-difluoro-2-methoxy-phenoxy)-2-(trifluoromethyl)-4-pyridyl]-5,6-dimethyl-4-oxo-1H-pyridine-3-carboxylic acid] |
| 0.5 to 2 µM | Cc1cc(-c2[nH]c(C)c(C)c(=O)c2C(=O)O)c(N2CCCC(F)(F)CC2)nc1C(F)(F)F [Compound 284, 2-[2-(4,4-difluoroazepan-1-yl)-5-methyl-6-(trifluoromethyl)-3-pyridyl]-5,6-dimethyl-4-oxo-1H-pyridine-3-carboxylic acid] |
| 0.5 to 2 µM | COc1cc(F)ccc1Oc1cc(C(C)(C)C)cc(C)c1-c1cc(=O)c(C(=O)N(C)C)c(C)[nH]1 [Compound 289, 6-[4-tert-butyl-2-(4-fluoro-2-methoxy-phenoxy)-6-methyl-phenyl]-N,N,2-trimethyl-4-oxo-1H-pyridine-3-carboxamide] |
| 2 to 5 µM | COC(=O)c1c(-c2cc(C(F)(F)F)ncc2N2CCCC(F)(F)CC2)[nH]c(C)c(C)c1=O [Compound 297, methyl 2-[5-(4,4-difluoroazepan-1-yl)-2-(trifluoromethyl)-4-pyridyl]-5,6-dimethyl-4-oxo-1H-pyridine-3-carboxylate] |
| 0.5 to 2 µM | Cc1c(Oc2ncc(C(F)(F)F)c(C)c2-c2cc(=O)c(C(N)=O)c[nH]2)ccc(F)c1F [Compound 310, 6-[2-(3,4-difluoro-2-methyl-phenoxy)-4-methyl-5-(trifluoromethyl)-3-pyridyl]-4-oxo-1H-pyridine-3-carboxamide] |
| ≥ 5 µM | Cc1cc(=O)cc(-c2c(C(F)(F)F)ccnc2N2CCCC(F)(F)CC2)[nH]1 [Compound 318, 2-[2-(4,4-difluoroazepan-1-yl)-4-(trifluoromethyl)-3-pyridyl]-6-methyl-1H-pyridin-4-one] |
| ≥ 5 µM | Cc1cc(=O)cc(-c2c(C(F)(F)F)ccnc2N2CCC(F)(F)CC2)[nH]1 [Compound 319, 2-[2-(4,4-difluoro-1-piperidyl)-4-(trifluoromethyl)-3-pyridyl]-6-methyl-1H-pyridin-4-one] |
| 2 to 5 µM | Cc1cnc(N2CCCC(F)(F)CC2)c(-c2cc(=O)cc(C)[nH]2)c1 [Compound 320, 2-[2-(4,4-difluoroazepan-1-yl)-5-methyl-3-pyridyl]-6-methyl-1H-pyridin-4-one] |
| ≥ 5 µM | Cc1cc(=O)cc(-c2cc(C(F)(F)F)ncc2C2CCC(C(F)(F)F)CC2)[nH]1 (stereo not drawn) [Compound 321, 2-methyl-6-[2-(trifluoromethyl)-5-[4-(trifluoromethyl)cyclohexyl]-4-pyridyl]-1H-pyridin-4-one] |
| 2 to 5 µM | Cc1cc(=O)cc(-c2cc(C(F)(F)F)ncc2C2CCC(C(F)(F)F)CC2)[nH]1 (stereo not drawn) [Compound 322, 2-methyl-6-[2-(trifluoromethyl)-5-[4-(trifluoromethyl)cyclohexyl]-4-pyridyl]-1H-pyridin-4-one] |
| ≥ 5 µM | Cc1cc(=O)cc(-c2ccc(C(F)(F)F)cc2C2(O)CCC(F)(F)CC2)[nH]1 [Compound 323, 2-[2-(4,4-difluoro-1-hydroxy-cyclohexyl)-4-(trifluoromethyl)phenyl]-6-methyl-1H-pyridin-4-one] |
| ≥ 5 µM | Cc1cc(=O)cc(-c2ccc(C(F)(F)F)cc2C2=CCC(F)(F)CC2)[nH]1 [Compound 324, 2-[2-(4,4-difluorocyclohexen-1-yl)-4-(trifluoromethyl)phenyl]-6-methyl-1H-pyridin-4-one] |
| 0.5 to 2 µM | Cc1cc(=O)cc(-c2ccc(C(F)(F)F)cc2C2CCC(F)(F)CC2)[nH]1 [Compound 325, 2-[2-(4,4-difluorocyclohexyl)-4-(trifluoromethyl)phenyl]-6-methyl-1H-pyridin-4-one] |
